Numbered stars: 1 amine (or outer) side, 2 acyl side, 3 side chain; on linkers, the order of the positions; unused ones are H or OH. Square brackets hold non-standard residues; d marks the D form. Peptide text beside a SMILES is read from it. ξ: configuration not given here. X3 = C[C@@H](OP(=O)(O)OCC[C@@H](O)CO)[C@H](N[*:1])C(=O)[*:2]; X20 = O=C([C@H](Cc1cncn1CC[C@@H](O)CO)N[*:1])[*:2]; X13 = COP(=O)(O)O[C@H](C)[C@H](N[*:1])C(=O)[*:2]; pT = C[C@@H](OP(=O)(O)O)[C@H](N)C(=O)O; ξP = O=C(O)C1CCCN1
Molecular target: Serine/threonine-protein kinase PLK1 (Homo sapiens, UniProt P53350)
Sequence (P53350 whole entry): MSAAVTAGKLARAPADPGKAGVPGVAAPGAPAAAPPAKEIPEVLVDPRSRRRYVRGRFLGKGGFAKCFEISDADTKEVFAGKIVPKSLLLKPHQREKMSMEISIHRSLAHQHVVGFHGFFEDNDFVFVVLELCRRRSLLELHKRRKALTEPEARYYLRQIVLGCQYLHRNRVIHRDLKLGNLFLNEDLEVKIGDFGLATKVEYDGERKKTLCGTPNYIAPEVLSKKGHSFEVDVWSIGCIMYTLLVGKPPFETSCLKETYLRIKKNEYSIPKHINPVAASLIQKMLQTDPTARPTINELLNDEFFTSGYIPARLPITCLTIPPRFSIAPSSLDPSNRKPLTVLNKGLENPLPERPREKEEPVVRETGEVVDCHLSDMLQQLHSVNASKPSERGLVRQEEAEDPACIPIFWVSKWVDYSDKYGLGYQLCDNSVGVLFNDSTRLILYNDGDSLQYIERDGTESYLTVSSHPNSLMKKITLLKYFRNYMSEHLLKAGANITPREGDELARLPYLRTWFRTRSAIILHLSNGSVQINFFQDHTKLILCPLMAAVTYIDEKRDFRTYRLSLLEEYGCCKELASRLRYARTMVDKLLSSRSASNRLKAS
Assay: Inhibition Assay
Details: pH 8; 25 °C
Excerpt: The evaluation of Plk1 PBD binding affinities of the synthetic compounds using an ELISA-based 96-well assay.

Compound | IC50 [µM]
COP(=O)(O)O[C@H](C)[C@H](NC(=O)[C@H](CO)NC(=O)[C@H](Cc1cnc[nH]1)NC(=O)[C@H](CC(C)C)NC(=O)C1CCCN1C(C)=O)C(N)=O (stereo partly drawn) [Phosphodiester analog, 3a] (Ac-[ξP]LHS[X13]-NH2) | > 200
CC(=O)N1CCCC1C(=O)N[C@@H](CC(C)C)C(=O)N[C@@H](Cc1cnc[nH]1)C(=O)N[C@@H](CO)C(=O)N[C@H](C(N)=O)[C@@H](C)OP(=O)(O)OCC[C@@H](O)CO (stereo partly drawn) [Phosphodiester analog, 3b] (Ac-[ξP]LHS[X3]-NH2) | > 200
CC(=O)N1CCCC1C(=O)N[C@@H](CC(C)C)C(=O)N[C@@H](Cc1cncn1CC[C@@H](O)CO)C(=O)N[C@@H](CO)C(=O)N[C@H](C(N)=O)[C@@H](C)OP(=O)(O)O (stereo partly drawn) [Phosphodiester analog, 4b] (Ac-[ξP]L[X20]S[pT]-NH2) | > 200
